Source: patent US20200024278A1, “COMPOSITION COMPRISING ANTIBIOTIC COMPOUND AND AN HETEROCYCLIC COMPOUND AND THEIR USE IN PREVENTING OR TREATING BACTERIAL INFECTIONS” (MUTABILIS, priority 2016, published 2020)

How the values were obtained:
ECO 190317 [1] = assay: Fractional Inhibitory Concentration Index, checkerboard assay; assay type: cell-based, E. coli
Experimental: (§1) Method 2: Determination of the Fractional Inhibitory Concentration Index
(§2) Serial 2-fold dilutions of each antibiotic tested were prepared in ca-MHB and mixed in each well of a 96-well microtiter plate so that each row (and column) contained a fixed amount of one agent and increasing amounts of the second agent. The range of drug concentrations used in the checkerboard analysis was such that the dilution range encompassed the MIC for each drug used in the analysis. Broth microdilution plates were inoculated with each strain (Table 3) to yield 5.10^5 CFU/mL in a 100 μL final volume and incubated for 18 h at 35° C. in ambient air. Assays including Fosfomycin were supplemented with 25 μg/ml of Glucose-6-phosphate. MICs were determined after overnight incubation, and the fractional inhibitory concentration (FIC) index was calculated for each well. The FIC index (FICI) was calculated for each combination according to the equation FICI=FICa+FICb=(MIC of drug A in combination/MIC of drug A alone)+(MIC of drug B in combination/MIC of drug B alone). The FICI was interpreted as follows: synergy, FICI […]; indifference, 0.5<FIC<4; and antagonism, FICI>4. The checkerboard assays were performed in duplicate.

PAE UFR90 [2] = assay: MIC, broth microdilution (CLSI), substance alone or ATB combined with compound at 4 or 8 μg/mL; assay type: cell-based, P. aeruginosa; conditions: PAE UFR90; for MIC ATB combined with compound: compound @8 μg/ml
In short: (§3)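 Growth inhibition endpoint, read visually after 16-20 h at 35° C in ambient air. Cation-adjusted Mueller-Hinton broth, inoculum 5·10^5 CFU/mL, CLSI M7-A7 protocol.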

PAE 105250 = assay: as above; assay type: cell-based, P. aeruginosa; conditions: PAE 105250; for MIC ATB combined with compound: compound @8 μg/ml
In short: as §3

PAE UFR48 [3] = assay: as above; assay type: cell-based, P. aeruginosa; conditions: PAE UFR48; for MIC ATB combined with compound: compound @8 μg/ml
In short: as §3

ECL P99 [4] = assay: as above; assay type: cell-based, E. cloacae; conditions: Enterobacter cloacae; substance alone; ECL P99; read-out: MIC
In short: as §3

PAE UFR90 [5] = assay: Fractional Inhibitory Concentration Index, checkerboard assay; assay type: cell-based, P. aeruginosa
Experimental: as §1, §2

PAE UFR48 [6] = assay: as above; assay type: cell-based, P. aeruginosa
Experimental: as §1, §2

KPN UFR68 = assay: as above; assay type: cell-based, K. pneumoniae
Experimental: as §1, §2

ECL P99 [7] = assay: as above; assay type: cell-based, E. cloacae
Experimental: as §1, §2

ECO 190317 [8] = assay: MIC, broth microdilution (CLSI), substance alone or ATB combined with compound at 4 or 8 μg/mL; assay type: cell-based, E. coli; conditions: Escherichia coli; substance alone; ECO 190317; read-out: MIC
In short: as §3

ECO UFR39 = assay: as above; assay type: cell-based, E. coli; conditions: Escherichia coli; substance alone; ECO UFR39; read-out: MIC
In short: as §3

KPN UFR42 = assay: as above; assay type: cell-based, K. pneumoniae; conditions: Klebsiella pneumoniae; substance alone; KPN UFR42; read-out: MIC
In short: as §3

KPN BAA-1898 = assay: as above; assay type: cell-based, K. pneumoniae; conditions: Klebsiella pneumoniae, BAA1898; substance alone; KPN BAA-1898; read-out: MIC
In short: as §3

SAU 29213 = assay: as above; assay type: cell-based, S. aureus; conditions: for MIC ATB combined with compound: compound @8 μg/ml, SAU 29213
In short: as §3

SPN 49619 = assay: as above; assay type: cell-based, S. pneumoniae; conditions: SPN 49619; for MIC ATB combined with compound: compound @8 μg/ml
In short: as §3

[9] = Pseudomonas aeruginosa, substance alone, read-out: MIC

Q: What does the source list for `O=C1N2CC(c3cccnc3)=CC(C2)N1OS(=O)(=O)[O-].[Na+]` (stereo not drawn) [Example 8, sodium [3-(3-pyridyl)-7-oxo-1,6-diazabicyclo[3.2.1]oct-3-en-6-yl] sulfate]?
A: FIC index min (ECO 190317 [1]; compound +ATM): 0.13; FIC index min (ECO 190317 [1]; compound +FEP): 0.13; FIC index min (ECO 190317 [1]; compound +FOS): 0.63; FIC index min (ECO 190317 [1]; compound +MEM): 0.57; FIC index min (ECO 190317 [1]; compound +PIP): ≤0.14; MIC ATB combined with compound (PAE UFR90 [2]; ATB ATM): 16 µg/mL; MIC ATB combined with compound (PAE UFR90 [2]; ATB FEP): 4 µg/mL; MIC ATB combined with compound (PAE UFR90 [2]; ATB FOS): 8 µg/mL; MIC ATB combined with compound (PAE UFR90 [2]; ATB MEM): 2 µg/mL; MIC ATB combined with compound (PAE UFR90 [2]; ATB PIP): >32 µg/mL; MIC (PAE UFR90 [2]; [9]): > 128 µg/mL; MIC ATB combined with compound (PAE 105250; ATB ATM): 8 µg/mL; MIC ATB combined with compound (PAE 105250; ATB FEP): 4 µg/mL; MIC ATB combined with compound (PAE 105250; ATB FOS): 128 µg/mL; MIC ATB combined with compound (PAE 105250; ATB MEM): 2 µg/mL; MIC ATB combined with compound (PAE 105250; ATB PIP): >32 µg/mL; MIC (PAE 105250; [9]): > 32 µg/mL; MIC ATB combined with compound (PAE UFR48 [3]; ATB ATM): 16 µg/mL; MIC ATB combined with compound (PAE UFR48 [3]; ATB FEP): 32 µg/mL; MIC ATB combined with compound (PAE UFR48 [3]; ATB FOS): 32 µg/mL; MIC ATB combined with compound (PAE UFR48 [3]; ATB MEM): 4 µg/mL; MIC ATB combined with compound (PAE UFR48 [3]; ATB PIP): >32 µg/mL; MIC (PAE UFR48 [3]; [9]): > 128 µg/mL; MIC (ECL P99 [4]): 8 µg/mL; FIC index min (PAE UFR90 [5]; compound +ATM): ≤0.75; FIC index min (PAE UFR90 [5]; compound +FEP): ≤0.25; FIC index min (PAE UFR90 [5]; compound +FOS): ≤0.62; FIC index min (PAE UFR90 [5]; compound +MEM): ≤0.56; FIC index min (PAE UFR90 [5]; compound +PIP): ≤0.25; FIC index min (PAE UFR48 [6]; compound +ATM): ≤0.13; FIC index min (PAE UFR48 [6]; compound +FEP): ≤0.5; FIC index min (PAE UFR48 [6]; compound +FOS): ≤0.25; FIC index min (PAE UFR48 [6]; compound +MEM): 1.0; FIC index min (PAE UFR48 [6]; compound +PIP): ≤0.31; FIC index min (KPN UFR68; compound +ATM): ≤0.07; FIC index min (KPN UFR68; compound +FEP): ≤0.08; FIC index min (KPN UFR68; compound +FOS): 0.75; FIC index min (KPN UFR68; compound +MEM): ≤0.07; FIC index min (KPN UFR68; compound +PIP): ≤0.07; FIC index min (ECL P99 [7]; compound +ATM): 0.53; FIC index min (ECL P99 [7]; compound +FEP): 0.25; FIC index min (ECL P99 [7]; compound +FOS): ≤0.28; FIC index min (ECL P99 [7]; compound +MEM): 0.75; FIC index min (ECL P99 [7]; compound +PIP): 0.16; MIC (ECO 190317 [8]): 4 µg/mL; MIC (ECO UFR39): 4 µg/mL; MIC (KPN UFR42): 16 µg/mL; MIC (KPN BAA-1898): 8 µg/mL; MIC ATB combined with compound (SAU 29213; ATB ATM): <0.031 µg/mL; MIC ATB combined with compound (SAU 29213; ATB FEP): <=0.031 μg/mL; MIC ATB combined with compound (SAU 29213; ATB FOS): 0.25 µg/mL; MIC ATB combined with compound (SAU 29213; ATB MEM): <0.031 µg/mL; MIC ATB combined with compound (SAU 29213; ATB PIP): <0.031 µg/mL; MIC (SAU 29213; Staphylococcus aureus, substance alone, SAU 29213 (MSSA 29213), read-out: MIC): 8 µg/mL; MIC ATB combined with compound (SPN 49619; ATB ATM): <=0.031 μg/mL; MIC ATB combined with compound (SPN 49619; ATB FEP): <0.031 µg/mL; MIC ATB combined with compound (SPN 49619; ATB FOS): <0.125 µg/mL; MIC ATB combined with compound (SPN 49619; ATB MEM): <0.031 µg/mL; MIC ATB combined with compound (SPN 49619; ATB PIP): <0.031 µg/mL; MIC (SPN 49619; Streptococcus pneumoniae, substance alone, read-out: MIC): 4 µg/mL
